Results reported in ChEMBL document CHEMBL1921747, “Novel cytotoxic chalcones from Litsea rubescens and Litsea pedunculata” (Bioorg Med Chem Lett, 2011).
In brackets after ≈: the same amount, converted by molar mass.

How the values were obtained:
[1] = tested on: HL-60; assay: Ratio of cisplatin IC50 to compound IC50 for human HL60 cells; format: functional
[2] = tested on: A-431; assay: Cytotoxicity against human A431 cells after 48 hrs by MTT assay; format: functional, cell-based; settings: A-431, 48 h
[3] = tested on: HepG2; assay: Cytotoxicity against human HepG2 cells after 48 hrs by MTT assay; format: functional, cell-based; settings: HepG2, 48 h
[4] = tested on: HL-60; assay: Cytotoxicity against human HL60 cells after 48 hrs by MTT assay; format: functional, cell-based; settings: HL-60, 48 h

COC1=CC(=O)C2(OC2C)C(O)=C1C(=O)/C=C/c1ccccc1 (configuration not stated) [LITSEAONE A]
Ratio IC50 [1]: 2.1
IC50 [2]: 11.1 µg/mL (≈ 35.5 µM)
IC50 [3]: 23 µg/mL (≈ 73.6 µM)
IC50 [4]: 6.1 µg/mL (≈ 19.5 µM)

COc1cc(O)c(C(=O)/C=C/c2ccccc2)c2c1OC(C)O2 (configuration not stated) [LITSEAONE B]
IC50 [2]: 13.9 µg/mL (≈ 44.5 µM)
IC50 [3]: 21.5 µg/mL (≈ 68.8 µM)
IC50 [4]: 10.2 µg/mL (≈ 32.7 µM)
